≈ marks a conversion by molar mass, not a printed value.
Legend:
Format in all cases: cell-based
[1] = test system: S. aureus Newman in PMA-differentiated human THP-1 cell line (macrophages); assay: Intra-macrophage activity
Text: The PMA-differentiated human THP-1 cell line (macrophages) was used as cellular host for infection with S. aureus Newman at an MOI (multiplicity of infection) of 10. […] Intracellular bacteria were recovered and serial dilutions were streaked out on CASO-Agar for cfu counting. The reference drug rifampicin reduced the number of intracellular bacteria by ca. 4 logs (at 8×MIC).

[2] = test system: HCT-116 colon carcinoma cells (ACC-581); assay: Cytotoxicity (MTT) assay, antiproliferative activity; settings: Homo sapiens, 120 h, HCT-116, 5 d incubation
Method: (§1) Half maximal inhibitory concentrations (IC50) in μg/ml of disciformycin A (1) and disciformycin B (2) for inhibiting the proliferative activity of human HCT-116 colon carcinoma cells, mouse fibroblast cells L929, and Chinese hamster ovary CHO-K1 cells were determined. Cells were seeded at 6×10^3 cells per well of 96-well plates (Corning CellBind®) in complete medium (180 μl) and directly treated with disciformycin dissolved in DMSO in serial dilution. The compound was tested in duplicate, as well as the internal solvent control. After 5 d incubation, 5 mg/ml MTT in PBS (20 μL) was added per well and it was further incubated for 2 h at 37° C. The medium was then discarded and cells were washed with PBS (100 μl) before adding 2-propanol/10N HCl (250:1, v/v; 100 μl) in order to dissolve formazan granules. The absorbance at 570 nm was measured using a microplate reader (EL808, Bio-Tek Instruments Inc.). The amount of formazan, i.e. relative absorption, is thereby proportional to the number of actively proliferating cells.

[3] = test system: Mouse fibroblast cells L929 (ACC-2); assay: as above; settings: 120 h, L929, 5 d incubation
Method: as §1

C/C=C(/C)[C@H]1C/C=C(\C)[C@@H](O[C@H]2O[C@H](CO)[C@@H](O)[C@@H]2O)[C@H](OC(=O)CC(C)C)C(=O)C/C=C(/C)C(=O)O1 [Compound 1, disciformycin A]
reduction of the number of intracellular bacteria ([1]; 18 h, MOI 10, cfu counting, tested at 1×, 4× and 8×MIC): 3 logs
cytotoxicity towards THP-1 host cells ([1]; 18 h treatment of infected macrophages): without causing any apparent cytotoxicity
IC50 [2]: 13 µg/mL (≈ 24.8 µM)
IC50 [3]: 29 µg/mL (≈ 55.3 µM)

From US20200231562A1, “NOVEL MACROLIDE ANTIBIOTICS” (HELMHOLTZ-ZENTRUM FÜR INFEKTIONSFORSCHUNG GMBH, priority 2014, published 2020)
